Assay [1] has as its target T1, recombinant full-length FMRP (isoform 1) (Homo sapiens, UniProt Q06787).
T1 construct: containing cDNA for full-length human FMRP; His-SUMO (N, cleaved yes); made in house; host or cells: Escherichia coli BL21 (DE3) Codon Plus
Briefly: In vitro intrinsic protein fluorescence binding assay. The following applies: for Kd: 1 μM FMRP, pH 7.4, 20 °C; for change of fluorescence emission spectrum of FMRP (binding): 500–1000 μM peptide and 1 μM FMRP, 100 mM NaCl, 50 mM Na2PO4 pH 7.4, 2 mM DTT, 20 °C, excitation 287 nm; for co-operativity of binding to dimeric FMRP: fit of binding data to dimer models. As to the method:
Small Ubiquitin-like Modifier (SUMO) fusion construct containing cDNA for full-length human FMRP was generated by gene synthesis (GenScript USA Inc.) and subcloned into a pET SUMO vector (Invitrogen). […] The pET SUMO–FMRP construct was transformed into Escherichia coli BL21 (DE3) Codon Plus cells and grown at 37 °C in Lennox broth medium. Protein expression was induced with 0.5 mM isopropyl-β-D-thiogalactopyranoside when optical density reached ~0.6, followed by 18 h of additional growth at 16 °C. Cells were harvested by centrifugation and pellets stored at −20 °C. In order to purify SUMO–FMRP, thawed pellets were resuspended in lysis buffer [50 mM Tris, pH 8.0, 500 mM NaCl, 20 mM imidazole, 10% glycerol, 250 mM arginine, 5 mM benzamidine, and 2 mM dithiothreitol (DTT)], supplemented with DNAse 1 and cOmplete™ Protease Inhibitor Cocktail (Sigma-Aldrich). After cell lysis and centrifugation, the filtered supernatant was loaded onto a 20 ml NiNTA column equilibrated in the same lysis buffer. The column was extensively washed with 20 column volumes (CV) of the same buffer supplemented with 100 mM imidazole. Elution of SUMO-fusion FMRP was performed using 100–500 mM imidazole gradient, and protein-containing fractions were combined and a 6× His tagged Ulp protease was added. Cleavage of the His-SUMO tag was performed overnight in a cold room (7 °C) while dialyzing in 4 L of 50 mM Tris, pH 8.0, 500 mM NaCl, 50 mM imidazole, 10% glycerol, 250 mM arginine, 5 mM benzamidine, and 2 mM DTT. Complete cleavage of the SUMO tag by Ulp was confirmed by SDS-PAGE and the protein of interest was separated from the Ulp protease and SUMO tag by passing the cleavage reaction over a second NiNTA column. Flow-through and wash fractions containing protein of interest were combined and then loaded onto a Superdex 200 gel filtration column pre-equilibrated with the same lysis buffer.
The eluted purified proteins were analyzed by both SDS-PAGE and mass spectrometry, and the combined fractions were dialyzed three times in 5 L of Fluorescence Binding Buffer (100 mM NaCl, 50 mM Na2PO4 pH 7.4, 2 mM DTT). After filtering through a 0.22 μm GV Durapore Centrifugal Filter Unit (Millipore), FMRP concentration was determined by absorbance at 280 nm using a molar extinction coefficient of 48,360 M^−1 cm^−1, and the protein was used for binding studies with Kv1.2 C-terminal peptides.
All measurements were carried out in the Fluorescence Binding Buffer at 20 °C using a PTI Quanta Master 80 Spectrofluorometer (HORIBA Scientific) by monitoring intrinsic protein fluorescence with an excitation wavelength of 287 nm. Prior to performing a binding titration for any of the peptides, a full emission spectrum (300–450 nm) of the peptide:FMRP complex was compared to that of apo-FMRP. Differences in the spectrum of the complex (500–1000 μM peptide and 1 μM FMRP) and apo-FMRP at the same concentration (i.e., fluorescence quenching, enhancement or shifts of the emission maximum) indicated binding. For each of these peptides, binding measurements were performed by adding aliquots of saturated 1 µM FMRP:peptide complex (titration solution) to 400 μL of 1 μM apo-FMRP solution as described by Wells and Di Cera. Briefly, at each titration step, a volume vD was removed from the cuvette containing the apo-FMRP and replaced by an equal volume of the titration solution (1 μM FMRP: 200–500 μM peptide complex). As a result, the concentration of FMRP (1 μM) and total volume of solution in the cuvette, V = 400 μL, remained constant while the concentration of the peptide at the ith titration step, [peptide]i, was increased, and given by
[peptide]i = [peptide]0^i.D^i+[peptide]∞^i.(1 − D^i),
where, [peptide]0 was the initial peptide concentration in the cuvette, [peptide]∞ was the peptide concentration in the titration solution, and D was the dilution factor, D = (V − vD)/V. […]

Assay [2] concerns PNs, WT and Fmr1-KO cerebellar slices. In kind it is cell-based, mouse.
The test system of assay [3] is PNs, Fmr1-KO cerebellar slices. In words: Spontaneous firing of PNs, cell-attached, Fmr1-KO. In kind it is cell-based, mouse. The following applies: 10 μM, co-applied with NBQX (10 μM); Fmr1-KO compared with WT.

Entries after “also recorded” stand apart in the source; their conditions may differ. Read-outs that look alike come from different tables or passages of the source. Non-standard residues stand in square brackets, D forms with d. Residues, ends and D or L forms follow the SMILES beside them. pS = N[C@@H](COP(=O)(O)O)C(=O)O

Turning to `CC[C@H](C)[C@H](NC(=O)[C@@H](NC(=O)[C@H](CO)NC(=O)[C@H](C)NC(=O)[C@H](CO)NC(=O)[C@H](CCCNC(=N)N)NC(=O)[C@H](CO)NC(=O)[C@H](CCCCN)NC(=O)[C@H](CCCCN)NC(=O)[C@H](CC(C)C)NC(=O)[C@H](CC(=O)O)NC(=O)[C@@H]1CCCN1C(=O)[C@H](COP(=O)(O)O)NC(=O)[C@H](COP(=O)(O)O)NC(=O)[C@@H]1CCCN1C(=O)[C@@H](NC(=O)[C@H](CCCCN)NC(=O)[C@@H]1CCCN1)[C@@H](C)CC)[C@@H](C)O)C(=O)N[C@@H](CO)C(=O)N[C@@H](CCCCN)C(=O)N[C@@H](CO)C(=O)N[C@@H](CC(=O)O)C(=O)O` [PhosKv436-457] (H-PKIP[pS][pS]PDLKKSRSASTISKSD-OH), the Kd is 10.1 ± 4.4 µM in assay [1] (model D1: dimer with one binding site, read-out: KD1, model D1) and 1.08 ± 0.26 µM in assay [1] (model D2i: dimer with two independent binding sites, read-out: KD1, model D2i).

As for `NC1=N[C@H](O)[C@H]2[C@H]3O[C@]4(O)O[C@@H]([C@@H](O)[C@@]2(N1)[C@@H]4O)[C@]3(O)CO` [TTX, tetrodotoxin], the “amplitude and frequency of mIPSCs, WT versus KO” value in assay [2] is “the amplitude and frequency of mIPSCs became indistinguishable between the two groups”.

`CN1CCc2cc3c(cc2[C@H]1[C@@H]1OC(=O)c2c1ccc1c2OCO1)OCO3` [bicuculline]: the “elimination of IPSC events” value in assay [2] (10 μM, holding −60 mV) is recorded as “eliminated all the events”. Besides, the “difference in PN firing rates between WT and KO” value in assay [3] is “the differences in PN firing rates were abolished”.

Turning to `CC[C@H](C)[C@H](NC(=O)[C@@H](NC(=O)[C@H](CO)NC(=O)[C@H](C)NC(=O)[C@H](CO)NC(=O)[C@H](CCCNC(=N)N)NC(=O)[C@H](CO)NC(=O)[C@H](CCCCN)NC(=O)[C@H](CCCCN)NC(=O)[C@H](CC(C)C)NC(=O)[C@H](CC(=O)O)NC(=O)[C@@H]1CCCN1C(=O)[C@H](CO)NC(=O)[C@H](COP(=O)(O)O)NC(=O)[C@@H]1CCCN1C(=O)[C@@H](NC(=O)[C@H](CCCCN)NC(=O)[C@@H]1CCCN1)[C@@H](C)CC)[C@@H](C)O)C(=O)N[C@@H](CO)C(=O)N[C@@H](CCCCN)C(=O)N[C@@H](CO)C(=O)N[C@@H](CC(=O)O)C(=O)O` [pS440] (H-PKIP[pS]SPDLKKSRSASTISKSD-OH; N-terminus and C-terminus assumed), in assay [1], the “change of fluorescence emission spectrum of FMRP (binding)” value is “significant spectral changes; also recorded: phosphorylation-mediated interaction”; the “co-operativity of binding to dimeric FMRP” value is on record as “with cooperativity; also recorded: binds dimeric FMRP in a co-operative mechanism”; the “reduced χ2 of fit, model D1” value was found to be 11.6; the “χ2 of fit, model D1” value came out at 92.8. For the same compound, in assay [1], the “reduced χ2 of fit, model D2i” value turned out to be 2.3 and the “χ2 of fit, model D2i” value turned out to be 16.4. For the same compound, in assay [1] (model D2c), the “enhancement of binding affinity of second ligand by binding of the first” value is ~ 80 fold; the “reduced χ2 of fit, model D2c” value is recorded as 0.16; the “χ2 of fit, model D2c” value is 0.99.

Regarding `CC[C@H](C)[C@H](NC(=O)[C@@H](NC(=O)[C@H](CO)NC(=O)[C@H](C)NC(=O)[C@H](CO)NC(=O)[C@H](CCCNC(=N)N)NC(=O)[C@H](CO)NC(=O)[C@H](CCCCN)NC(=O)[C@H](CCCCN)NC(=O)[C@H](CC(C)C)NC(=O)[C@H](CC(=O)O)NC(=O)[C@@H]1CCCN1C(=O)[C@H](COP(=O)(O)O)NC(=O)[C@H](CO)NC(=O)[C@@H]1CCCN1C(=O)[C@@H](NC(=O)[C@H](CCCCN)NC(=O)[C@@H]1CCCN1)[C@@H](C)CC)[C@@H](C)O)C(=O)N[C@@H](CO)C(=O)N[C@@H](CCCCN)C(=O)N[C@@H](CO)C(=O)N[C@@H](CC(=O)O)C(=O)O` [pS441] (H-PKIPS[pS]PDLKKSRSASTISKSD-OH; N-terminus and C-terminus assumed), in assay [1], the “change of fluorescence emission spectrum of FMRP (binding)” value is given as “significant spectral changes; also recorded: phosphorylation-mediated interaction”; the “co-operativity of binding to dimeric FMRP” value is listed as “without cooperativity; also recorded: did not produce co-operative binding effects”; the “reduced χ2 of fit, model D1” value is 10; the “χ2 of fit, model D1” value is 106. Besides, in assay [1], the “reduced χ2 of fit, model D2i” value is listed as 11 and the “χ2 of fit, model D2i” value worked out at 107. The “binding affinity relative to the other phospho-peptides” value in assay [1] (FMRP dimer models) is given as “did bind with similar affinities”. Moreover, the “fit to D2c model” value in assay [1] (model D2c) is “could not be fitted to the D2c model”. Also, the “KD tighter than the KD1 of pS440” value in assay [1] (models D1 and D2i versus KD1 of pS440 (D2c)) is listed as ~ 5 fold. Also, the “KD weaker than the KD2 of pS440” value in assay [1] (models D1 and D2i versus KD2 of pS440 (D2c)) is ~ 15 fold.
